“Also recorded” adds a separate entry of the source. Like-named read-outs stand apart in the source and are kept apart here.
Assays:
HKC cells = assay: Cell viability of HKC cells (Trypan blue exclusion); type: cell-based, human; conditions: TNF-a (2 ng/ml) treated HKC cells at 24 h
Protocol: (§1) Human proximal TEC (HKC-8) (courtesy of Dr. L. Racusen of John Hopkins University, Baltimore, Md.) were maintained in Dulbecco's modified Eagle's medium (DMEM)/F12 supplemented with 5% fetal bovine serum (FBS). Cells were plated at approximately 70% confluence in the media containing 5% FBS for 24 h and then underwent serum starvation for another 24 h. Human recombinant HGF and human recombinant TNF-α (R&D systems, Minneapolis, Minn.) were added to the culture with fresh serum-free medium at a final concentration of 20 ng/ml and 2 ng/ml respectively, or otherwise as indicated. Cell viability was assessed by Trypan blue exclusion. At different time points, cells and conditioned media were harvested for further investigation.

b-catenin = b-catenin accumulation in HKC; type: cell-based, human
[1] = tested on: rats with unilateral urethral obstruction(UUO); assay: Rats with unilateral urethral obstruction (UUO); type: in vivo, rat; conditions: for renal inflammation (ED-1 macrophage infiltration): VPA 200 mg/kg/d ip, 5 days
NFkB p65 = assay: TNF-a induced NFkB p65 phosphorylation in HKC cells (immunoblot); type: cell-based, human; conditions: HKC cells; for TNF-a induced p65 phosphorylation at S468: TNF-a 2 ng/ml, VPA 1 mM, 10 uM for 60 minutes
Protocol: as §1
(§2) After different treatments, HKC cells were washed with PBS and lysed with RIPA buffer supplemented with protease inhibitors [1% Nonidet P-40, 0.1% SDS, 100 ug/ml phenylmethysulfonyl fluoride (PMSF), 0.5% sodium deoxycholate, ImM sodium orthovanadate, 2 ug/ml aprotin, 2 ug/ml leupeptin, 5mM EDTA in PBS]. Protein concentration was determined by using a bicinchoninic acid protein assay kit (Sigma). All samples with equal amounts of total protein (50 ug/ml) were fractionated by 7.5˜15% SDS-polyacrylamide gels under reducing condition and analyzed by western immunoblot as described previously (30). The antibodies against p-GSK3b, p-NFkB p65, p-IkBa were purchased from Cell Signaling Technology (Beverly, Mass.) and those for GSK3b, hemagglutin were from Santa Cruz Biotechnology (Santa Cruz, Calif.).

GSK3b and NFkB p65 = molecular target: T1, GSK3b and NFkB p65 (Homo sapiens, UniProt P49841); assay: Co-immunoprecipitation of GSK3b and NFkB p65 in HKC cells; type: cell-based; conditions: HKC cells
T1 construct: whole cell lysates were subjected to immunoprecipitation by anti-GSK3b or anti-p65 antibody; endogenous in cells; host or cells: HKC-8
T1 sequence (P49841 whole entry): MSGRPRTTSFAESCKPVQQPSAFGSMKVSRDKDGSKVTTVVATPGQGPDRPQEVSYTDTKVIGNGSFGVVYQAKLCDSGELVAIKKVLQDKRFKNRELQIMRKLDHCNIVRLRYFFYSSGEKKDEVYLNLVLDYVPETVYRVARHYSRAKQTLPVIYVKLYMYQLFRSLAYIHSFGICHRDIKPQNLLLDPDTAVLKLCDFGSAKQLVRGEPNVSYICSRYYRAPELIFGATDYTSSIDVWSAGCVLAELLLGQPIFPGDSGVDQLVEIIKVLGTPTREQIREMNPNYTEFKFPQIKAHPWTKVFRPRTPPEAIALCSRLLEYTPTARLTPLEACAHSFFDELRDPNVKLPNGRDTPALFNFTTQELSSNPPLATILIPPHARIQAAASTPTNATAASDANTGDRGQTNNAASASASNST
Protocol: Immunoprecipitation was carried out by using an established method as described previously. Briefly, cells were washed with ice cold PBS and then lysed with RIPA buffer. After preclearing with normal IgG, cell lysates with equal amount of total protein (0.5 mg of protein) were incubated overnight at 4° C. with 4 μg specific agarose-conjugated antibodies. The precipitated complexes were collected, washed, and separated on SDS-polyacrylamide gels and blotted with various antibodies as indicated.

NFkB target genes = assay: Real time RT-PCR of NFkB target genes in TNF-a stimulated HKC cells; type: cell-based, human; conditions: HKC cells, 12 h
Protocol: Total RNA was extracted from approximately 1×10^6 cultured HKC cells using TRIzol solution (Invitrogen, Carlsbad, Calif.) according to the instructions specified by the manufacturer. RNA was then diluted to 3μg/μl in RNase free distilled water. The first strand cDNA was prepared using 3 μg RNA, Superscript RT reverse transcriptase (Invitrogen) and oligo (dT) primer according to the manufacture's instruction. Quantitative real time PCR was carried out on a Stratagene Mx4000® multiplex quantitative PCR system (Stratagene, La Jolla, Calif.) using primers specific for human MCP-1, RANTES, IkBa, Bcl-2 and GAPDH. All reactions were performed in triplicate with Brilliant® SYBR® Green QPCR Master Mix (Stratagene). Fluorescence values of SYBR Green I dye, representing the amount of product amplified at that point in the reaction, were recorded in real time at both the annealing step and the extension step of each cycle. The Ct value, defined as the point at which the fluorescence signal was statistically significant above background, was calculated for each amplicon in each experimental sample using Stratagene Mx4000 software. This value was then used to determine the relative amount of amplification in each sample by interpolating from the standard curve. Transcript level of each specific gene was normalized to GAPDH amplification.

GSK3b = GSK3b (Homo sapiens, UniProt P49841); assay: Inhibitory phosphorylation of GSK3b in HKC cells (immunoblot); type: cell-based; parameters: endogenous in cells; host or cells: HKC-8
Chain of GSK3b (P49841 whole entry): as above
Protocol: as §1, §2

[2] = kidney homogenates, immunoblot, listed as VPA

Compound | cell viability / TNF-a induced apoptosis (HKC cells) | b-catenin accumulation (b-catenin) | renal inflammation (ED-1 macrophage infiltration) [1] | renal inflammation (ED-1 macrophage infiltration) ([1]; listed as VPA) | renal total GSK3b expression ([1]; kidney homogenates, immunoblot) | renal inhibitory phosphorylation of GSK3b [1, 2] | renal total GSK3b expression [1, 2] | TNF-a induced p65 phosphorylation at other sites (S276, S536) (NFkB p65) | TNF-a induced p65 phosphorylation at S468 (NFkB p65) | TNF-a induced p65 phosphorylation at S468 (NFkB p65; listed as VPA) | TNF-a induced co-precipitation of phosphorylated p65 (Ser468) with GSK3b (GSK3b and NFkB p65; immunoprecipitation by anti-GSK3b) | TNF-a induced GSK3b to p65 interaction (GSK3b and NFkB p65; immunoprecipitation by anti-p65) | TNF-a induced mRNA expression of IkBa and Bcl-2 (NFkB target genes) | TNF-a induced mRNA expression of MCP-1 and RANTES (NFkB target genes) | inhibitory phosphorylation of GSK3b (S9) (GSK3b) | inhibitory phosphorylation of GSK3b (S9) (GSK3b; listed as Sodium valproate) | inhibitory phosphorylation of GSK3b (S9) (GSK3b; listed as Valproic acid)
CCCC(CCC)C(=O)O [valproate, Valproic acid, reference compound] | Only lithium significantly reduced cell viability | induced b-catenin (b-Cat.) accumulation | prevented inflammatory infiltration; also recorded: markedly ameliorates renal inflammation | diminished renal inflammation | blunted induced expression of GSK3b in the diseased kidney | much greater; also recorded: enhanced its inhibitory phosphorylation | substantially suppressed total GSK3b expression | minimally affected phosphorylation of p65 at other sites | suppresses TNF-a elicited p65 phosphorylation at S468 | abrogates the TNF-a induced NFkB p65 phosphorylation at Ser468 in a dose dependent manner | mimicking the action of VPA | reminiscent the effect of VPA | mimicked the action of HGF on the expression of these genes | mimicked the action of HGF on the expression of these genes | induced marked GSK3b phosphorylation | induced phosphorylation of GSK3b at Ser9 | induces inhibitory phosphorylation of GSK3b at S9
Cn1sc(=O)n(Cc2ccccc2)c1=O [TDZD-8] | Only lithium significantly reduced cell viability | induced b-catenin (b-Cat.) accumulation | – | – | – | – | – | – | – | – | – | – | – | – | induced marked GSK3b phosphorylation | – | –
